Legend:
[1] = Oral bioavailability in dog; format: ADME, organism-based, Canis lupus familiaris; conditions: in vivo
[2] = Oral bioavailability in rat; format: ADME, organism-based; conditions: in vivo

- bioavailability [1]: 30%
- bioavailability [2]: 34%
SMILES: COc1cc2c(cc1Cc1cccc(Cl)c1F)c(=O)c(C(=O)O)cn2[C@H](CO)C(C)C [ELVITEGRAVIR]

— ChEMBL document CHEMBL1156072, “Twenty-six years of anti-HIV drug discovery: where do we stand and where do we go?” (J Med Chem, 2010)
